Entries after “also recorded” stand apart in the source; their conditions may differ. *1 amine or outer side, *2 acyl side, *3 side chain or, on linkers, in order; H or OH if unused. Where a SMILES comes first, the peptide text is derived from it. Bridges are numbered along the chain shown (N, C = ends). Roman numbers before positions name the chains, in order. [ ]: non-standard residue; d: D form. Actinocin(9to1) = Cc1c2oc3c(C)ccc(C(=O)[*:1])c3nc-2c(C(=O)[*:2])c(N)c1=O; NMeV = CN[C@H](C(=O)O)C(C)C; Sar = CNCC(=O)O
Tests used:
F9-1-13 cells = assay: Cell-based FRET reporter assay in F9-1-13 (SgAT) cells; parameters: species or system human
Excerpt: Transfection of pcDNA3VH-SgAT and pcDNA3VH-SnAT into U-138 cells (using methods described above) resulted initially in few colonies and FRET signal was lost in many clones during expansion, however, from among the various subclones the F9-1-13 (pcDNA3VH-SgAT transfected; ATCC No. PTA-84) and F10-24-2 (pcDNA3-SnAT transfected) subclones were eventually expanded and shown to express stable FRET signals. As desired, the FRET signal expressed in F9-1-13 decreased in response to both staurosporin and anti-Fas antibody treatment of cells, while the FRET signal expressed by the F10-24-2 control cells, (i.e., lacking a caspase substrate domain), was unaffected following staurosporin or anti-Fas antibody treatment. […] F9-1-13 therefore appeared suitable for microtiter assays, and perhaps use in HTS assays for screening to identify and select modulators of apoptosis.
Studies were initiated to adapt the experimental cell-based FRET assay of EXAMPLE 5 to a format suitable for use in high-throughput screening. First, the assay was scaled down from a 24-well to a 96-well plate format. Cells from three different F9 parental cultures were plated in a black-sided 96-well plates (Costar #3904) at a density of 32,000 cells/well (˜1×10^5 cells/cm^2); allowed to adhere overnight; and then the media was replaced with either 100 μl fresh media containing inducer (5 μM staurosporin in 0.25% DMSO vehicle) or 100 μl containing only vehicle (0.25% DMSO). After an overnight incubation, fluorescence measurements were made to evaluate FRET signal changes. […] The assay therefore appeared to be adaptable to a 96-well format but it was not initially clear how signal might be improved to increase the signal-to-background ratio.
A 96-well FRET assay was evaluated for inter-assay well variability and inter-plate variability. Possible signal drift during measurement of the FRET fluorescence signal was evaluated using one of two different robotics-compatible rapid fluorescence plate readers (SpeedReader or Cytofluor II). After plating at an initial density of about 60,000 cells/well, and overnight culture F9-1-13 cells were treated with 5 μM staurosporin, or vehicle. After an overnight incubation in staurosporin (i.e., 16-24 hrs.), the plates were either washed, or not washed, and then assayed repeatedly over the next 1.5 hours using either of the plate readers. […] However, using the same assay conditions but with anti-Fas antibody as an inducer, different results were recorded. […] The basis for the observed differences in measuring devices is not clear, but may relate to the design of the light source and/or the sensitivity of the detection circuitry in the two different respective fluorescence readers as well as possible different means for optically or digitally subtracting background incident radiation.
Assay Confirmation: The following experiment was performed to validate the ability of the 96-well FRET assay to detect inhibitors of apoptosis: namely, F9-1-13 cells (n=5 wells) were treated with 50-100 μM Z-VAD-fmk (a broad spectrum caspase inhibitor) or vehicle (n=55) in randomized wells of a 96-well plate. All of these wells, and six additional positive control wells (i.e., lacking the inhibitor), were treated with 5 μM staurosporine in 0.25% DMSO vehicle. Six negative control wells were treated with vehicle only (0.25% DMSO). After overnight incubation, FRET signal changes were evaluated as described above.
Three alternatives to staurosporine induction were evaluated: serum withdrawal; c2-ceramide treatment; and induction via engagement of the CD95/Fas receptor with anti-Fas antibody. […] To increase the proportion of adherent cells, poly-D-lysine and 0.1% gelatin were evaluated in anti-Fas antibody treated F9-1-13 cells. […] Anti-Fas antibody was therefore chosen as a preferred inducer of apoptosis for high-throughput screening. […]

caspase-3 [1] = assay: Caspase-3 activity in F9-1-13 cells; format: cell-based, human; details: 75 μM, 16-24 hours
Description: Three alternatives to staurosporine induction were evaluated: serum withdrawal; c2-ceramide treatment; and induction via engagement of the CD95/Fas receptor with anti-Fas antibody. […] To increase the proportion of adherent cells, poly-D-lysine and 0.1% gelatin were evaluated in anti-Fas antibody treated F9-1-13 cells. […] Anti-Fas antibody was therefore chosen as a preferred inducer of apoptosis for high-throughput screening.
(§1) Caspase-3 Assay: Caspase-3 activity was assayed according to the following protocol. Cells plated and treated as above were washed in 1×PBS and lysed in 1×assay buffer (1 mM DTT, 1% Triton X-100, 0.5% Tween-20 in 1×PBS, pH 7.2). Lysates were combined with fluorogenic substrate, Ac-DEVD-AMC ([…]), ±inhibitor, Ac-DEVD-CHO (10 μM) (Bachem) in 1×assay buffer and incubated in the dark for 1 hr. at room temperature. Fluorescence readings were taken on the Cytofluor II plate reader (excitation 360 nm, emission 460 nm, 6 reads/well, gain 50).

caspase-3 [2] = assay: Caspase-3 assay in IMR-32 cells; format: cell-based
Description: (§2) Three CNS derived cell lines, IMR-32, NB41A3 and Neuro2A, were initially evaluated for growth and transfection characteristics, inducibility of apoptosis in a large percentage of cells, and a inducible apoptosis protease activity. […] The SYTO 13 cell survival assay and Cell Death Detection ELISA^PLUS (Materials and Methods) were used to optimize conditions for induction of apoptosis. IMR-32 cells were treated with Actinomycin D (ActD), cycloheximide (CHX), etoposide or staurosporin for 4-8 hrs.
as §1
Confluent IMR-32 cells were treated with 100 μM etoposide for 8 hrs. Cell lysates were collected and assayed for caspase-3 activity.

IMR-32 cells [3] = assay: Microscopic examination of SYTO 13 / propidium iodide stained IMR-32 cells; format: cell-based; details: etoposide
Excerpt: Three CNS derived cell lines, IMR-32, NB41A3 and Neuro2A, were initially evaluated for growth and transfection characteristics, inducibility of apoptosis in a large percentage of cells, and a inducible apoptosis protease activity. […] The SYTO 13 cell survival assay and Cell Death Detection ELISA^PLUS (Materials and Methods) were used to optimize conditions for induction of apoptosis. […]
Morphologic Markers of Apoptosis: Microscopic markers of apoptosis include membrane blebbing, cell shrinkage (i.e., cytoplasmic condensation) and condensed (dense) chromosomal nuclear materials (i.e., pyknosis).

IMR-32 cells [4] = format: cell-based
Description: as §2
DNA Fragmentation ELISA: Apoptosis-induced inter-nucleosomal fragmentation of chromosomal DNA was quantified using the “Cell Death Detection ELISA^PLUS” (Boehringer Mannheim) according to the manufacturer's instructions. Briefly, ˜10^4 cells/well were plated on a poly-D-lysine-coated 96-well plate and treated for various periods of times with different apoptosis-inducing agents. The cells were lysed and the nuclei and membranes were pelleted. An aliquot of the cytoplasm-containing supernatant was then transferred to a streptavidin-coated microtiter plate and incubated with anti-histone-biotin and anti-DNA-peroxidase, resulting in the formation of “sandwich” antibody complexes, i.e., (anti-DNA-peroxidase)-(nucleosomal-DNA-containing-histone) -(anti-histone-biotin)-(streptavidin-microtiter plate). Unbound antibody was removed by washing. Peroxidase substrate (i.e., ABTS) was added and nucleosomal DNA complexes quantified by spectrophotometric analysis of the colored peroxidase reaction product.
(§3) Etoposide-Induced Cell Death and Apoptotic DNA Fragmentation in IMR-32 Cells: Confluent IMR-32 cells were treated with 50 μM etoposide phosphate for 2, 8, 17 or 24 hrs. To evaluate apoptosis cells were either: i) stained with SYTO 13 and assayed for fluorescence using a Cytofluor II plate reader (excitation 485/20 nm, emission 530/30 nm), or ii) nucleosome-associated DNA fragments were detected using the Cell Death Detection ELISA^PLUS (Boehringer Mannheim) according to the manufacturer's instructions.

caspase-3 [5] = assay: Caspase-3 assay in SAT-reporter-transformed HEK293 cells after apoptosis inducers; format: cell-based, human; details: 100-200 μM etoposide, 4, 5, 8 or 24 hrs.
IMR-32 cells [6] = assay: Cell death / SYTO 13 cell survival in IMR-32 cells; format: cell-based; details: for cells surviving (SYTO 13 assay): 50 μM etoposide; for programmed cell death as measured by Cell Death Detection: 4-8 hrs. treatment
Description: as §2
SYTO13 Cell Viability Assays: Cells were seeded into 96-well plates, incubated overnight to adhere cells to the plastic, and then treated in quadruplicate for various times with extrinsically applied apoptosis-inducing agents, i.e., staurosporin or etoposide. Cell viability was determined using 5 μM SYTO 13 (Molecular Probes) and/or 5 μg/ml propidium iodide (PI, Molecular Probes). As controls, four wells of untreated cells were stained with SYTO 13 and PI, i.e., to measure the maximum signal (max), and four wells of untreated cells were stained with only PI, i.e., to measure the minimum signal (min). After 30 minutes of incubation at 37° C., fluorescence was assayed in plates using the Cytofluor II plate reader (Perseptive Biosystems) (excitation 485/20 nm; emission 530/30 nm; gain 50). Data was collected as relative fluorescence units (rfu) and averaged for six readings per well. Percent cell survival was calculated as 100×(rfutreatment−rfumin)/(rfumax−rfumin).
as §3

F1-1-42 cells = assay: Staurosporin-induced apoptosis in F1-1-42 SAT FRET reporter cells (FRET signal, western blot, caspase-3, morphology); format: cell-based, human; details: 100 μM added 30 min prior to staurosporin
Description: Detecting Intracellular Changes in a FRET Reporter in Cells Undergoing Apoptosis: Having established that SAT reporter protein synthesized in HEK293 cells could be cleaved ex vivo, i.e., in cell lysates by trypsin (above), an initial in vivo intracellular assay was conducted using the selected F1-1-42 clonal cell line and staurosporin to induce apoptosis. […] In these experiments the F1-1-42 cells were plated at a density of 4×10^5 cells/0.5 ml in each well of a 24-well microtiter plate. After overnight incubation, apoptosis was induced by adding staurosporin to a final concentration of 5 μM, and using vehicle (0.25% DMSO) as a negative control. Assays for caspase-3 were used to confirm that apoptosis was induced. […] Subsequent testing determined that significant changes in FRET signal were first detectable at about 8 hours after addition of staurosporin and were maximal by 24 hrs post-induction.

[7] = 50 μM etoposide phosphate, 2, 8, 17 or 24 hrs.

## Z-VAD-fmk
F9-1-13 cells; 50-100 μM Z-VAD-fmk, 5 μM staurosporine, overnight, 96-well, P<0.001
  mean FRET signal greater than in the staurosporine treatment group: ~65%

## CCCCCCCCCCCCC/C=C/[C@@H](O)[C@H](CO)NC(C)=O [c2-ceramide]
F9-1-13 cells; 75 μM, 16-24 hours
  FRET signal change: Only a small reduction in the FRET signal
caspase-3 [1]
  caspase-3 activity change: Only a small reduction in the FRET signal and increase in caspase-3 activity

## COc1cccc2c1C(=O)c1c(O)c3c(c(O)c1C2=O)C[C@@](O)(C(=O)CO)C[C@@H]3O[C@H]1C[C@H](N)[C@H](O)[C@H](C)O1 [Doxorubicin]
caspase-3 [2]; 5 μM
  increase in caspase-3 activity: did not produce any increase in caspase-3 activity

## COc1cc([C@@H]2c3cc4c(cc3[C@@H](O[C@@H]3O[C@@H]5CO[C@@H](C)O[C@H]5[C@H](O)[C@H]3O)[C@H]3COC(=O)[C@H]23)OCO4)cc(OC)c1O [etoposide]
IMR-32 cells [3]; 8 hrs.
  attached cells obviously dead: none were obviously dead
  attached cells with condensed nuclei and membrane blebbing: about 50%
IMR-32 cells [3]; 24 hrs.
  attached cells clearly dead: about 15%
  attached cells showing apoptotic morphology: about 75%
caspase-3 [2]; confluent IMR-32, 100 μM etoposide, 8 hr.
  increase in caspase-3 activity: ~5 fold
caspase-3 [2]; etoposide 50-100 μM
  induction of caspase-3-like activity: ~10 fold
IMR-32 cells [4]; 50 μM etoposide
  time at which DNA fragmentation reached a maximal value: 8 h
IMR-32 cells [4]; [7]
  measured apoptotic DNA fragmentation: an increase in measured apoptotic DNA fragmentation
IMR-32 cells [4]; 4-8 hrs. treatment
  DNA fragmentation as determined by ELISA, dose dependence: dose-dependent changes
caspase-3 [5]
  change in caspase-3 activity: no change was observed; also recorded: showed no effect
IMR-32 cells [6]; [7]
  cell survival by SYTO 13 staining in comparison with untreated controls: a decrease in cell survival over 24 hrs.
IMR-32 cells [6]; 8 hr
  cells surviving (SYTO 13 assay): 55%
IMR-32 cells [6]; 24 hrs
  cells surviving (SYTO 13 assay): 30%
IMR-32 cells [6]
  programmed cell death as measured by Cell Death Detection: about 50%

## C[C@@H]1C[C@@H]([C@H](O)CC2CC(=O)NC(=O)C2)C(=O)[C@@H](C)C1 [CHX, cycloheximide]
IMR-32 cells [6]
  programmed cell death as measured by Cell Death Detection: about 50%

## Z-DEVD-fmk
F1-1-42 cells
  effect on cleavage of SAT reporter in cell extracts (western blot): markedly less cleavage of SAT reporter
  effect on morphologic signs of apoptosis: reduced morphologic signs of apoptosis
  effect on staurosporin-induced FRET signal change: marked reduction in the FRET signal change

## Cc1c2oc3c(C)ccc(C(=O)N[C@@H]4C(=O)N[C@H](C(C)C)C(=O)N5CCC[C@H]5C(=O)N(C)CC(=O)N(C)[C@@H](C(C)C)C(=O)O[C@@H]4C)c3nc-2c(C(=O)N[C@@H]2C(=O)N[C@H](C(C)C)C(=O)N3CCC[C@H]3C(=O)N(C)CC(=O)N(C)[C@@H](C(C)C)C(=O)O[C@@H]2C)c(N)c1=O [ActD, Actinomycin D] (I: T[dV]P[Sar][NMeV] / II: T[dV]P[Sar][NMeV]; ester I:1-I:C, II:1-II:C; linker I:N-II:N via Actinocin(9to1))
IMR-32 cells [6]
  programmed cell death as measured by Cell Death Detection: about 30%

From US20020177120A1, “ASSAYS FOR APOTOSIS MODULATORS” (priority 1999, published 2002)
